Experimental findings from ChEMBL document CHEMBL5465560, “Selectivity Literature for EUbOPEN Chemogenomic Library” (2024) are described below.

Experiment [1] concerns the target Homeodomain-interacting protein kinase 3 (Homo sapiens, UniProt Q9H422). Description: Selectivity interaction (KinomeScan (DiscoverX)) EUB0000595a HIPK3. Particulars: at 10 µM.
In experiment [2] the target is T1, Dual serine/threonine and tyrosine protein kinase (Homo sapiens) (UniProt Q6XUX3).
T1 sequence (whole entry): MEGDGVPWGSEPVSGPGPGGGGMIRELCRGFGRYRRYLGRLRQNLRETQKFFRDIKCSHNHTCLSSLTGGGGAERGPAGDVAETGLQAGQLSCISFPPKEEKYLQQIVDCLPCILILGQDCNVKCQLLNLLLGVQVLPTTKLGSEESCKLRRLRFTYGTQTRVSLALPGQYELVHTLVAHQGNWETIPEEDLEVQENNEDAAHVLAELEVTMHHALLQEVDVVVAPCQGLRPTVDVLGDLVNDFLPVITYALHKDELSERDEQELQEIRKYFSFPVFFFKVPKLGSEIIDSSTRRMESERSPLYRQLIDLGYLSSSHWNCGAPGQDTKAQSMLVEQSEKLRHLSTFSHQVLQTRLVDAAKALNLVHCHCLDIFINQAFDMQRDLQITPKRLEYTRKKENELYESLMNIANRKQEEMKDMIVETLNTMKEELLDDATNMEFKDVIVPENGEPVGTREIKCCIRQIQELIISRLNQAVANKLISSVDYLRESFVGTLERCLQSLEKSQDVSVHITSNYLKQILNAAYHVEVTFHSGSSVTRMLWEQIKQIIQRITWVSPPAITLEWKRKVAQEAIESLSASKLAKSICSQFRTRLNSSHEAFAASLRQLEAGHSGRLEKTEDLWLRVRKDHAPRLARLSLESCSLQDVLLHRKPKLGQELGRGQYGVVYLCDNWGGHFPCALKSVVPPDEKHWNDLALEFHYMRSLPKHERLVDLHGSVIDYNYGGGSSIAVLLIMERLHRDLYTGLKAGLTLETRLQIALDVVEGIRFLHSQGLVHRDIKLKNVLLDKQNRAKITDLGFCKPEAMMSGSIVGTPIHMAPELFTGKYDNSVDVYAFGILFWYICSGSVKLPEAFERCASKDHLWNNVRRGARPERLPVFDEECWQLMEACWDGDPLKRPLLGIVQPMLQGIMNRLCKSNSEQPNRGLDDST
Kind of experiment: Selectivity interaction (KinomeScan (DiscoverX)) EUB0001049a DSTYK. Particulars: at 1 µM.

Experiment [3] has as its target [Pyruvate dehydrogenase (acetyl-transferring)] kinase isozyme 1, mitochondrial (Homo sapiens, UniProt Q15118). Kind of experiment: Selectivity interaction (Upstate Kinase Profiler service (Millipore)) EUB0000056c PDK1. As to conditions: at 1 µM.
In experiment [4] the target is T2, Mitogen-activated protein kinase kinase kinase 6 (Homo sapiens) (UniProt O95382).
T2 sequence (whole entry): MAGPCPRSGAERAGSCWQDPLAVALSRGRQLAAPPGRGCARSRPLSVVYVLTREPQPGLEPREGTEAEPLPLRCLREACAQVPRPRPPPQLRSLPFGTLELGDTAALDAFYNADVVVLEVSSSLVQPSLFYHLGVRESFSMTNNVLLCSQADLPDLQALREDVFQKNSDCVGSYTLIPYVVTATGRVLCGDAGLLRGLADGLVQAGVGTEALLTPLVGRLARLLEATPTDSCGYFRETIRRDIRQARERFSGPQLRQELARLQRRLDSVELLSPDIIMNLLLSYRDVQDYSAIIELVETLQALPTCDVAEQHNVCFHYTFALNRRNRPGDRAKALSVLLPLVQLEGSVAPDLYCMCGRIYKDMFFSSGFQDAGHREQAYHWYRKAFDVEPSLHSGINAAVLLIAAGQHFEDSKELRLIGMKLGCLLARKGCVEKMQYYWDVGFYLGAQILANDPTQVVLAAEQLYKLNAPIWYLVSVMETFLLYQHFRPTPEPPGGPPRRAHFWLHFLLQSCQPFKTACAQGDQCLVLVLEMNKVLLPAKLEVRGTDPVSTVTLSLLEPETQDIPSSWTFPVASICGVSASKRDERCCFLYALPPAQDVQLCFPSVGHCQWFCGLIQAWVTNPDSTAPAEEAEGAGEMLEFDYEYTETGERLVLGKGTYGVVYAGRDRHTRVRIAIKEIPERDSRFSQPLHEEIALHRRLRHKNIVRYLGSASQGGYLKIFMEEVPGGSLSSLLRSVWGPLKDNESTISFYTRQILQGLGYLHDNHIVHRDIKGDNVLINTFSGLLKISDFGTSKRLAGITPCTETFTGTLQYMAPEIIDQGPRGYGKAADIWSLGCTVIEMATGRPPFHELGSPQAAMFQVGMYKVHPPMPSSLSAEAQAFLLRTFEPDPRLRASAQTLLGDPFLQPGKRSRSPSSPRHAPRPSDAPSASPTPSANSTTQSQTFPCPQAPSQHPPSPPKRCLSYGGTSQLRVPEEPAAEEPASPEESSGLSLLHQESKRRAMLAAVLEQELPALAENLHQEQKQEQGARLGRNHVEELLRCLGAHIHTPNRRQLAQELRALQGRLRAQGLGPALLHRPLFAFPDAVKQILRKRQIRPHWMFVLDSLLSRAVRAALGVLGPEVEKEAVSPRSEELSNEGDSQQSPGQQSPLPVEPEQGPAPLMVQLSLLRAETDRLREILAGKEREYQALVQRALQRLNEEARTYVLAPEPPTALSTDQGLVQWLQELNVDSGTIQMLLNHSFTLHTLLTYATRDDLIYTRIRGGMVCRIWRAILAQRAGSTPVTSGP
Description: Selectivity interaction (KinomeScan (DiscoverX)) EUB0000618a MAP3K6. Particulars: at 10 µM.

Experiment [5] addresses Serine/threonine-protein kinase pim-1 (Homo sapiens, UniProt P11309). Kind of experiment: Selectivity interaction (KinomeScan (DiscoverX)) EUB0000618a PIM1. As to conditions: at 10 µM.
For experiment [6], the target named is Cyclin-dependent kinase-like 1 (Homo sapiens) (UniProt Q00532). Kind of experiment: Selectivity interaction (Kinase panel (DSF assay)) EUB0001558a CDKL1. (In general: Differential scanning fluorimetry follows unfolding on heating by fluorescence.)
Chain of Cyclin-dependent kinase-like 1 (Homo sapiens) (Q00532 whole entry): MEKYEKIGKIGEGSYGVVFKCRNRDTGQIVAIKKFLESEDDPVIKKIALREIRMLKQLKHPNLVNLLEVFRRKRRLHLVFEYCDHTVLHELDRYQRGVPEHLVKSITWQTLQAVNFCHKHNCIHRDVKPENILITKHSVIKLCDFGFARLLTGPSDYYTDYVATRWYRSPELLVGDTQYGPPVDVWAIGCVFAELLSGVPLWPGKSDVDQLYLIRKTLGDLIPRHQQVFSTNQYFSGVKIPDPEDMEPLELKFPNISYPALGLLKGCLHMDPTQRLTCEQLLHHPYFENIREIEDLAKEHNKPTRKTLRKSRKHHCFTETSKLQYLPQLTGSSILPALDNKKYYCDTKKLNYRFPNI

Chain of Homeodomain-interacting protein kinase 3 (Q9H422 whole entry, looked up): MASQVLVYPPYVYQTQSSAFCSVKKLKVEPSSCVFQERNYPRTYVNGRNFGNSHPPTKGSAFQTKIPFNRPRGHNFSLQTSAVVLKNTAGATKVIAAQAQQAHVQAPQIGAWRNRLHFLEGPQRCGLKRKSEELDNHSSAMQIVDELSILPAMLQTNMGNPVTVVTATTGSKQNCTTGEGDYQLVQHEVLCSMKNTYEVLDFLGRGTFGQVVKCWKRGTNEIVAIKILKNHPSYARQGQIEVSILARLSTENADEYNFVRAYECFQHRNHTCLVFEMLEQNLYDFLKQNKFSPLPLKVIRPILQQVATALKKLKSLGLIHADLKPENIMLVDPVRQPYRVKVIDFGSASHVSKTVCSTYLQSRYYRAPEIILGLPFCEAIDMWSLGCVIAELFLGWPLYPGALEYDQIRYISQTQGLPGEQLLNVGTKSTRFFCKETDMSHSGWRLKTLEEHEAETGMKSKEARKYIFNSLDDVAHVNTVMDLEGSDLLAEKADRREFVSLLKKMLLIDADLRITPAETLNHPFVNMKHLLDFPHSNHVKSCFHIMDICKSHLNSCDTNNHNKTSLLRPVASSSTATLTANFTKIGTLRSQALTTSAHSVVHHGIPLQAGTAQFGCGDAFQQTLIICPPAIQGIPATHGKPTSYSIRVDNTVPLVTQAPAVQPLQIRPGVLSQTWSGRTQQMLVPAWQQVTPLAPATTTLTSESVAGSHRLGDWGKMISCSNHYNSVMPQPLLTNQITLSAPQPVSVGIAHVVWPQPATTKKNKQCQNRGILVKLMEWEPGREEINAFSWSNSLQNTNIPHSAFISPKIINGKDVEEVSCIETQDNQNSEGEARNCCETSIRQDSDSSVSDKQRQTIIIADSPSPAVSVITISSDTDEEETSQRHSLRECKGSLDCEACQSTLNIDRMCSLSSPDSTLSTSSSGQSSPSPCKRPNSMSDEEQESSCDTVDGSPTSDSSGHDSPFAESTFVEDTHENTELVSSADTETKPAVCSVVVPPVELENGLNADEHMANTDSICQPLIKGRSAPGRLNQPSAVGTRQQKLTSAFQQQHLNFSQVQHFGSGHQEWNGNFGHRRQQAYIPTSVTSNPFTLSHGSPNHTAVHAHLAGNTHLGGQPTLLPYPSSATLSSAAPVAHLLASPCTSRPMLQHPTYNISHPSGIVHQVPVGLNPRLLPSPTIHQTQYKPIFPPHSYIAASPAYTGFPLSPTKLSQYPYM
Chain of Serine/threonine-protein kinase pim-1 (P11309 whole entry, looked up): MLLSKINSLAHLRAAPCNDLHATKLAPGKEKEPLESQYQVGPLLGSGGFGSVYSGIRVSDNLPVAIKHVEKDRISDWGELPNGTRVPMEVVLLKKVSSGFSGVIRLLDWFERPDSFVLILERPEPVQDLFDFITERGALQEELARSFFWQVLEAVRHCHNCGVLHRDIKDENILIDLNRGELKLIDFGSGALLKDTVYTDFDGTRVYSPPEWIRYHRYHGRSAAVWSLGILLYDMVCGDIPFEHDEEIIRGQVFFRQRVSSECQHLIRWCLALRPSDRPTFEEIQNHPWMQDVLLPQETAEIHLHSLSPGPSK

For the compound `COCC(=O)NC/C=C/c1ccc2ncnc(Nc3ccc(Oc4ccc(C)nc4)c(C)c3)c2c1` [CP-724714], the % of control in experiment [1] stood at 100%. Regarding `COc1cc(Nc2nc(C)cc(-c3cnn4nc(OC)ccc34)n2)cc(C(F)(F)F)c1`, the % of control in experiment [2] was determined as 79%.

Compound `Cc1ccc(-c2ccc3c(ccc4sc5c(c43)NC[C@@H](C)NC5=O)n2)cn1` registered a % of inhibition in experiment [3] of 0%. Consider `O[C@H]1CC[C@H](Nc2ncc3nc(Nc4c(F)cc(F)cc4F)n([C@H]4CCOC4)c3n2)CC1`, for which the % of control was 88% in experiment [4] and 100% in experiment [5]. In the case of `CC(C)(O)[C@H](F)CN1Cc2cc(NC(=O)c3cnn4cccnc34)c(N3CCOCC3)cc2C1=O`, the dTM in experiment [6] is -0.4 K.
